US20240287138A1, “CYCLIC PEPTIDES FOR INHIBITING TNF RECEPTOR 1 ACTIVITY” (Merck Sharp & Dohme LLC, priority 2023, published 2024)
Where two headings read alike, the source gives them in different places. Numbered stars: 1 amine (or outer) side, 2 acyl side, 3 side chain; on linkers, the order of the positions; unused ones are H or OH. Bridge positions count the residues as written; N and C are the ends. Square brackets hold non-standard residues; d marks the D form. Peptide text beside a SMILES is read from it. * marks the point of attachment. Trp(βS-Me,7-OMe) = COc1cccc2c([C@H](C)[C@H](N)C(=O)O)c[nH]c12; Trp(7-Cl) = N[C@@H](Cc1c[nH]c2c(Cl)cccc12)C(=O)O; X8 = O=C([C@@H]1C[C@@H](O)[C@H](N[*:1])C1)[*:2]; Phe(4-CONH2) = NC(=O)c1ccc(C[C@H](N)C(=O)O)cc1; Phe(4-COOH) = N[C@@H](Cc1ccc(C(=O)O)cc1)C(=O)O; Trp(7-aza) = N[C@@H](Cc1c[nH]c2ncccc12)C(=O)O; Pip(5R-OH) = O=C(O)[C@@H]1CC[C@@H](O)CN1; X1 = O=C([C@@H]1CC[C@H](N[*:1])C1)[*:2]; X38 = CC(C)(CO)CN(CC(=O)[*:2])[*:1]; Pip(4-aza) = O=C(O)[C@@H]1CNCCN1; 4Pal = N[C@@H](Cc1ccncc1)C(=O)O; NMeE = CN[C@@H](CCC(=O)O)C(=O)O; dHyp = O=C(O)[C@H]1C[C@H](O)CN1; Pip = O=C(O)[C@@H]1CCCCN1; αMeS = C[C@](N)(CO)C(=O)O; Carboxymethyl = O=C(O)C*; Nle = CCCC[C@H](N)C(=O)O; Sar = CNCC(=O)O

What was measured:
[1] = biological target: T1, TNFα-induced NF-κB signal transduction pathway (TNFR1 signaling) in THP-1 cells (Homo sapiens, UniProt P19438); assay: THP-1 Lucia NF-κB reporter cell assay, inhibition of TNFα-induced NF-κB signaling; format: cell-based; conditions: THP-1 NF-κB Lucia reporter cells, 10 ng/mL TNFα, 16-18 h, secreted luciferase; read-out: THP-1 IC50
T1 sequence (P19438 30-455): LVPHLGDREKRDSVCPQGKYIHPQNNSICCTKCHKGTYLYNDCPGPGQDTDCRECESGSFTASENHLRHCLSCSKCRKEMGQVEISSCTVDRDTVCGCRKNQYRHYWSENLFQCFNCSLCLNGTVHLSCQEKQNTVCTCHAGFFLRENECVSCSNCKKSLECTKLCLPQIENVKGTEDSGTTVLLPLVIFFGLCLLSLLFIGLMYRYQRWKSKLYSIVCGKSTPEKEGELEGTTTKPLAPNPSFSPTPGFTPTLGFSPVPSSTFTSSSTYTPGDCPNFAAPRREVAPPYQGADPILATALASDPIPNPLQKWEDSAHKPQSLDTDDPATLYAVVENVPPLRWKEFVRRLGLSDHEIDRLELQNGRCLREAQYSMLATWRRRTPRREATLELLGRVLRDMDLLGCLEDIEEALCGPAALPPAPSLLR
Summary of the method: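 THP-1 Lucia NF-κB cells, 20k/well, no selection antibiotics; peptide pre-inc 1 h 37 °C; + recombinant human TNFα 10 ng/mL final; o.n.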

[2] = biological target: T2, human TNFR1 extracellular domain (ECD) protein (Homo sapiens, UniProt P19438); assay: SPR binding affinity to captured human TNFR1 ECD
T2 construct: HRV 3C protease cleavage site (C); 6His (C, cleaved yes); made in house; host or cells: Sf21 insect cells (baculovirus), secreted
T2 sequence (P19438 30-211): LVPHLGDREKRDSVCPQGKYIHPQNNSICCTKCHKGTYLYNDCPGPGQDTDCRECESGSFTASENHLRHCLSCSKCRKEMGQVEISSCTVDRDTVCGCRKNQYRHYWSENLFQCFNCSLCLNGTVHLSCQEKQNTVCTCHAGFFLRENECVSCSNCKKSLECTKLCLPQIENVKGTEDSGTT
Experimental: (§1) B. Procedure for Binding Affinity and Selectivity measured by SPR
(§2) Affinity and selectivity for hTNFR1 and TNFR2 was determined using SPR. Human TNFR1 or TNFR2 genes (extracellular domain only) were synthesized with a C-terminal Avi-tag, HRV 3C protease cleavage site followed by a 6His-tag for affinity purification. The final gene product was cloned into pBAC™-1 vector (Millipore Sigma) for expression testing in insect cells. Constructs were transfected into Sf21 cells for baculovirus generation followed by protein expression analysis in Sf21 and Tni cell lines. Large scale expression in Sf21 cells was performed using baculovirus infected insect cells (BIICs) infected at a MOI=2.0 grown for 72 h. Target proteins secreted into the media were harvested via centrifugation and concentrated using diafiltration. TNFR was purified by immobilized metal ion affinity chromatography (IMAC) using a Ni-Sepharose HisTrap™ column (Cytiva™). Isolated TNFR had His tag removed using HRV 3C protease followed by additional purification using Ni-NTA chromatography. Biotinylation was performed on Ni-NTA flow-through fractions concentrated to 45 μM and treated with BirA ligase (1:100, μg/μg ratio) in 50 mM Tris pH 7.5, 150 mM NaCl, 50 μM biotin, 10 mM magnesium acetate, 10 mM ATP at 4° C. for 20 h. Final purification of biotin-TNFR and buffer exchange into 20 mM HEPES pH 7.5, 150 mM NaCl was performed using a HiLoad® Superdex® 200 26/60 column (Cytiva™). Highly purified protein was aliquoted and stored at −80° C.
(§3) The SPR assay uses a Cytiva™ 8K or 8K+ biosensor instrument to measure the kinetics of peptide analytes binding to captured human TNFR1 extracellular domain (ECD) protein; peptide analytes are also evaluated for any off-target binding to human TNFR2 ECD protein in parallel. Recombinant human TNFR1 ECD and human TNFR2 ECD proteins, biotinylated via engineered C-terminal avi-tags, are immobilized to a regenerable streptavidin biosensor chip surface (Cytiva™ Biotin CAPture kit, Series S; cat. #28920234). Peptide analytes binding to immobilized human TNFR1 ECD protein and their subsequent dissociation are conducted in a buffer of 10 mM HEPES pH 7.4, 150 mM NaCl, 3 mM EDTA, 0.05% P20,2% DMSO under laminar flow conditions and measured in response units (RU), which are directly proportional to the accumulated mass on the surface of the biosensor chip; the biosensor chip surface is regenerated via Cytiva™ proprietary methods between the evaluation of each peptide analyte. […] The SPR assay determines the association and dissociation rate constants, kon and koff, for each peptide analyte and, from these values, calculates the binding affinity, […] reported in Table 2.

[3] = biological target: T3, human TNFR2 ECD protein (Homo sapiens, UniProt P20333); assay: SPR off-target binding (selectivity) to human TNFR2 ECD
T3 construct: HRV 3C protease cleavage site (C); 6His (C, cleaved yes); made in house; host or cells: Sf21 insect cells (baculovirus), secreted
T3 sequence (P20333 23-257): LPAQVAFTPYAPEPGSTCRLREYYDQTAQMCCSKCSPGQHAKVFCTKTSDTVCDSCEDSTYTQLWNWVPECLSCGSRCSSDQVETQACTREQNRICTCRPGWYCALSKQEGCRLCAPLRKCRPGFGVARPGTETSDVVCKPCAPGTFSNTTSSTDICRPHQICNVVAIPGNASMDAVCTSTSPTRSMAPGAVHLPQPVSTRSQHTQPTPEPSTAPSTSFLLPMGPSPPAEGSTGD
Experimental: as §1, §2, §3

Row | Structure (SMILES) | IC50 [1] | Kd [2] | Kd [3] | Kd ([2]; biotinylated human TNFR1 ECD on streptavidin chip, from kon and koff, read-out: SPR hTNFR1 KD) | Kd ([3]; biotinylated human TNFR2 ECD on streptavidin chip, read-out: SPR hTNFR2 KD)
1 | CCCC[C@@H]1NC(=O)[C@@H]2CC[C@@H](C2)NC(=O)[C@H]([C@@H](C)c2c[nH]c3c(OC)cccc23)NC(=O)CN(C)C(=O)[C@H](Cc2ccc(OCC(=O)O)cc2)NC(=O)[C@H](Cc2ccc(C(N)=O)cc2)NC(=O)[C@](C)(CO)NC(=O)[C@H](Cc2c[nH]c3c(Cl)cccc23)NC(=O)[C@H](Cc2ccc(OCC(=O)O)cc2)NC(=O)[C@H](CC(N)=O)NC(=O)[C@H]2C[C@H](O)CN2C(=O)[C@H](Cc2c[nH]c3ccccc23)NC(=O)[C@@H]2CC[C@@H](O)CN2C(=O)[C@H](Cc2ccncc2)NC1=O [SEQ ID NO. 3] (cyclo([4Pal][Pip(5R-OH)]W[dHyp]NY(Carboxymethyl)[Trp(7-Cl)][αMeS][Phe(4-CONH2)]Y(Carboxymethyl)[Sar][Trp(βS-Me,7-OMe)][X1][Nle])) | 0.5 nM | 0.04 nM | > 1000 nM | – | –
2 | CCCC[C@@H]1NC(=O)[C@@H]2CC[C@@H](C2)NC(=O)[C@H]([C@@H](C)c2c[nH]c3c(OC)cccc23)NC(=O)CN(C)C(=O)[C@H](Cc2ccc(O)cc2)NC(=O)[C@H](Cc2ccc(C(=O)O)cc2)NC(=O)[C@](C)(CO)NC(=O)[C@H](Cc2c[nH]c3c(Cl)cccc23)NC(=O)[C@H](Cc2ccncc2)NC(=O)[C@H](CC(N)=O)NC(=O)[C@H](CCC(=O)O)N(C)C(=O)[C@H](Cc2c[nH]c3ccccc23)NC(=O)[C@@H]2CNCCN2C(=O)[C@H](Cc2ccncc2)NC1=O [SEQ ID NO. 5] (cyclo([4Pal][Trp(7-Cl)][αMeS][Phe(4-COOH)]Y[Sar][Trp(βS-Me,7-OMe)][X1][Nle][4Pal][Pip(4-aza)]W[NMeE]N)) | 1.2 nM | – | – | 0.1 nM | > 1000 nM
3 | CCCC[C@@H]1NC(=O)[C@@H]2C[C@@H](O)[C@@H](C2)NC(=O)[C@H]([C@@H](C)c2c[nH]c3c(OC)cccc23)NC(=O)CN(C)C(=O)[C@H](Cc2ccc(O)cc2)NC(=O)[C@H](Cc2ccc(C(=O)O)cc2)NC(=O)[C@](C)(CO)NC(=O)[C@H](Cc2c[nH]c3c(Cl)cccc23)NC(=O)[C@H](Cc2ccncc2)NC(=O)[C@H](CC(N)=O)NC(=O)[C@H](CCC(=O)O)N(C)C(=O)[C@H](Cc2c[nH]c3ccccc23)NC(=O)[C@@H]2CNCCN2C(=O)[C@H](Cc2ccncc2)NC1=O [SEQ ID NO. 34] (cyclo([4Pal][Trp(7-Cl)][αMeS][Phe(4-COOH)]Y[Sar][Trp(βS-Me,7-OMe)][X8][Nle][4Pal][Pip(4-aza)]W[NMeE]N)) | 0.7 nM | – | > 1000 nM | – | –
4 | CCCC[C@@H]1NC(=O)CSC[C@@H](C(N)=O)NC(=O)[C@H]([C@@H](C)c2c[nH]c3c(OC)cccc23)NC(=O)CN(C)C(=O)[C@H](Cc2ccc(O)cc2)NC(=O)[C@H](Cc2ccc(C(=O)O)cc2)NC(=O)[C@](C)(CO)NC(=O)[C@H](Cc2c[nH]c3c(Cl)cccc23)NC(=O)[C@H](Cc2ccncc2)NC(=O)[C@H](CC(N)=O)NC(=O)CN(CC(C)(C)CO)C(=O)[C@H](Cc2c[nH]c3ncccc23)NC(=O)[C@@H]2CCCCN2C(=O)[C@H](Cc2ccncc2)NC1=O [SEQ ID NO. 61] ({CH2CO}-[Nle][4Pal][Pip][Trp(7-aza)][X38]N[4Pal][Trp(7-Cl)][αMeS][Phe(4-COOH)]Y[Sar][Trp(βS-Me,7-OMe)]C-NH2; thioether N-14) | 3.6 nM | – | > 1000 nM | – | –
